Measured values: patent US6972296B2, “Carboxylic acid derivatives that inhibit the binding of integrins to their receptors” (Encysive Pharmaceuticals Inc., priority 1999, dated 2005)
pIC50: −log10 of the molar value. Blank lines part the entries; values can stand above or below the compound they belong to.

Biological target: T1, α4β1 integrin (Homo sapiens, UniProt P05556+P13612)
T1 construct: endogenous in cells; host or cells: Ramos cells
Experiment: Adhesion of calcein-labeled Ramos cells to CS1 (fibronectin) peptide conjugated ovalbumin
Assay type: cell-based
Conditions: Ramos cell adhesion to CS1 conjugated ovalbumin
Description: A procedure in which a 26-amino acid peptide containing the CS1 sequence of fibronectin with an N-terminal Cys ([…]) was coupled to maleimide activated ovalbumin was used to determine the efficacy of the compounds synthesized. Bovine serum albumin (BSA) and CS1 conjugated ovalbumin were coated onto 96-well polystyrene plates at 0.5 μg/ml in TBS (50 mM TRIS, pH 7.5; 150 mM NaCl) at 4° C. for 16 hours. The plates were washed three times with TBS and blocked with TBS containing 3% BSA at room temperature for 4 hours. Blocked plates were washed three times in binding buffer (TBS; 1 mM MgCl2; 1 mM CaCl2; 1 mM MnCl2) prior to assay. Ramos cells fluorescently labeled with calcein AM were resuspended in binding buffer (10^7 cells/ml) and diluted 1:2 with same buffer with or without compound. 100 μM of compound was added. The cells were added immediately to the wells (2.5×10^5 cells/well) and incubated for 30 minutes at 37° C. Following three washes with binding buffer, adherent cells were lysed and quantitated using a fluorometer. IC50 is defined as the dose required to give 50% inhibition, measured in μM for Tables 2 and 4. The lower the IC50 value and the greater the percentage of inhibition, the more efficient the compound is at prevention of cell adhesion.

[1] = Table 7, dose required to give 50% inhibition
[2] = Table 5, dose required to give 50% inhibition

T1 sequence (P13612 34-1032): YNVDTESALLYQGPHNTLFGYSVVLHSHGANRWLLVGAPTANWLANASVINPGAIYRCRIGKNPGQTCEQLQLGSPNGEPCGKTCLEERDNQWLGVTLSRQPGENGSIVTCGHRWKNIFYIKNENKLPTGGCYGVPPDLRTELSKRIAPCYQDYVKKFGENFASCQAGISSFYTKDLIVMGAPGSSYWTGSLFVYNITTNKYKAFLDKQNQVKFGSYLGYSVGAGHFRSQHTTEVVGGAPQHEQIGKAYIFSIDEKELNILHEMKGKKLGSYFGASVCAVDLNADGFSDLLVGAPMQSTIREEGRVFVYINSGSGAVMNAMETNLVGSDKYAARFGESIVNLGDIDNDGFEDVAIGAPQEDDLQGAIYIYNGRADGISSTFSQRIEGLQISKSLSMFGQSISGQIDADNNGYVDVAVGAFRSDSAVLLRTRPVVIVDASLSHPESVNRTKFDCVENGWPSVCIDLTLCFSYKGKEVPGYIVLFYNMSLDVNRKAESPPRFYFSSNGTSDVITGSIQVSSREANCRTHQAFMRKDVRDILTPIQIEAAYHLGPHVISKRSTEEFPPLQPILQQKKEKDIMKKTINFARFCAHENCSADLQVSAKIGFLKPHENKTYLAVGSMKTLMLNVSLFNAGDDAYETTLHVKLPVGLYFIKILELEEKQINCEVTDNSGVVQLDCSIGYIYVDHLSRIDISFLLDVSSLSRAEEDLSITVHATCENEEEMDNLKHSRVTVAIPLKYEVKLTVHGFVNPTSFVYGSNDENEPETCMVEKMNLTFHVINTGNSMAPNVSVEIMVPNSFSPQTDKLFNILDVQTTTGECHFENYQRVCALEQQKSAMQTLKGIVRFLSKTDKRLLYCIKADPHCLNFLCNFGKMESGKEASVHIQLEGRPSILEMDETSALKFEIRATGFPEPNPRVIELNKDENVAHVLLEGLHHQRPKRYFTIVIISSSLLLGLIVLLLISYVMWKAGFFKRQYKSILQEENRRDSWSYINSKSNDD
T1 sequence (P05556 21-798): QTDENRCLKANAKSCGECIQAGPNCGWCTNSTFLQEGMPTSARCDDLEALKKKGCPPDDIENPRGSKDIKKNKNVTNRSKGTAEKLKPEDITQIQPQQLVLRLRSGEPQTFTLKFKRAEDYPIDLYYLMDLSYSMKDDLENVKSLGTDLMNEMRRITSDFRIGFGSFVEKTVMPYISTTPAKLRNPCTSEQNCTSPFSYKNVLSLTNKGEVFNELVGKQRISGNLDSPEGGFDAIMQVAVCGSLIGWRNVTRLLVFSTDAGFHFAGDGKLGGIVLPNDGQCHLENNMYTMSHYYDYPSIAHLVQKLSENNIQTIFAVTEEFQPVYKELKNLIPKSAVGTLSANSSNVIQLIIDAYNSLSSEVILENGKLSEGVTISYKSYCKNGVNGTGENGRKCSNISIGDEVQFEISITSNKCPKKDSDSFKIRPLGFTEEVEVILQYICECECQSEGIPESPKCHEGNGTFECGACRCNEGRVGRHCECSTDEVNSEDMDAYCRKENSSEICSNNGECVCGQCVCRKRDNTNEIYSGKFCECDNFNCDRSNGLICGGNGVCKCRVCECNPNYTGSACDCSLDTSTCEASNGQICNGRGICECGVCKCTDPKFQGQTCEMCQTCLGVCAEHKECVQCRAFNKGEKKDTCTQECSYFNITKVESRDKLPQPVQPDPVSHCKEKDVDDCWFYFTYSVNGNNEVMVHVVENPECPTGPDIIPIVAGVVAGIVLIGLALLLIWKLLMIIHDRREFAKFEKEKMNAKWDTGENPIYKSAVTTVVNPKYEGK

SMILES: Cc1ccc([C@H](CC(=O)O)NC(=O)Nc2c(N3CCOCC3)ccn(Cc3ccccc3Cl)c2=O)cc1
pIC50 (Table 3, 30 minutes at 37° C.): 9.00

SMILES: Cc1ccn(Cc2ccccc2Cl)c(=O)c1NC(=O)N[C@H](C)CC(=O)O
pIC50 (Table 3, 30 minutes at 37° C.): 6.52

SMILES: Cc1cn(Cc2ccccc2Cl)c(=O)c(NC(=O)NC(CC(=O)O)c2ccc(-c3ccccc3)cc2)c1O (stereo not drawn)
pIC50 (Table 6, 30 minutes at 37° C.): 6.89

SMILES: Cc1cn(Cc2ccccc2Cl)c(=O)c(NC(=O)N[C@@H](CC(=O)O)c2cccc(-c3ccccc3C(F)(F)F)c2)c1O
pIC50 [1]: 6.80

SMILES: Cc1cc(C)cc([C@H](CC(=O)O)NC(=O)Nc2c(O)c3c(n(Cc4ccccc4Cl)c2=O)CCC3)c1 [(3S)-3-[({[1-(2-chlorobenzyl)-4-hydroxy-2-oxo-2,5,6,7-tetrahydro-1H-cyclopenta[b]pyridin-3-yl]amino}carbonyl)amino]-3-(3,5-dimethylphenyl)propanoic acid]
pIC50 [1]: 8.05

SMILES: Cc1ccc(Cn2ccc(O)c(NC(=O)N[C@@H](CC(=O)O)c3ccc(C)cc3)c2=O)cc1
pIC50 [2]: 7.60

SMILES: Cc1cn(Cc2ccccc2Cl)c(=O)c(NC(=O)N[C@@H](CC(=O)O)c2ccc(C(C)C)cc2)c1O
pIC50 [1]: 6.76

SMILES: O=C(O)CC(NC(=O)Nc1c(O)ccn(Cc2ccccc2Cl)c1=O)c1ccco1 (stereo not drawn)
pIC50 [2]: 7.30

SMILES: O=C(O)C[C@H](NC(=O)Nc1c(O)ccn(Cc2ccccc2Cl)c1=O)c1cccc(OC(F)(F)C(F)F)c1
pIC50 (Table 6, 30 minutes at 37° C.): 7.82

SMILES: O=C(O)C[C@H](NC(=O)Nc1c(O)ccn(Cc2ccccc2Cl)c1=O)C(c1ccccc1)c1ccccc1
pIC50 [2]: 4.92

SMILES: Cc1ccc([C@H](CC(=O)O)NC(=O)Nc2c(O)ccn(Cc3ccccc3Cl)c2=O)cc1C [(3S)-3-[({[1-(2-chlorobenzyl)-4-hydroxy-2-oxo-1,2-dihydropyridin-3-yl]amino}carbonyl)amino]-3-(3,4-dimethylphenyl)propanoic acid]
pIC50 [2]: 8.30

SMILES: O=C(Nc1cccn(Cc2cccs2)c1=O)NC(c1ccc2c(c1)OCO2)C(F)(F)C(=O)O (stereo not drawn) [3-(1,3-benzodioxol-5-yl)-2,2-difluoro-3-[({[2-oxo-1-(2-thiophenylmethyl)-1,2-dihydro-3-pyridinyl]amino}carbonyl)amino]propanoic acid]
pIC50 (Table 4, 30 minutes at 37° C.): < 4.00

SMILES: CCOc1ccc(Cl)c(Cl)c1Cn1c2c(c(O)c(NC(=O)N[C@@H](CC(=O)O)c3ccc(C)cc3)c1=O)CCC2
pIC50 [1]: 8.30

SMILES: O=C(O)CC(NC(=O)Nc1cccn(Cc2ccccc2Cl)c1=O)c1cccc(Cl)c1 (stereo not drawn)
pIC50 (Table 4, 30 minutes at 37° C.): 6.00

SMILES: O=C(O)C[C@H](NC(=O)Nc1cccn(Cc2cccc(Cl)c2)c1=O)c1ccc2c(c1)OCO2
pIC50 (Table 4, 30 minutes at 37° C.): 6.10

SMILES: Cc1cn(Cc2ccccc2Cl)c(=O)c(NC(=O)NC(CC(=O)O)c2ccc(C3CC3)cc2)c1O (stereo not drawn)
pIC50 [1]: 7.46

SMILES: Cc1ccc([C@H](CC(=O)O)NC(=O)Nc2cccn(Cc3cccc(Cl)c3)c2=O)cc1
pIC50 [2]: 6.30

SMILES: Cc1ccc([C@H](CC(=O)O)NC(=O)Nc2cccn(Cc3ccc(F)cc3)c2=O)cc1
pIC50 [2]: 5.70

SMILES: Cc1ccc([C@H](CC(=O)O)NC(=O)Nc2c(O)ccn(Cc3ccc(Cl)c(Cl)c3)c2=O)cc1
pIC50 [2]: 7.35

SMILES: CCOc1cccc(Cl)c1Cn1c(C)c(CC)c(O)c(NC(=O)N[C@@H](CC(=O)O)c2ccccc2)c1=O
pIC50 [1]: 8.40

SMILES: Cc1ccc([C@H](CC(=O)O)NC(=O)Nc2c(O)ccn(Cc3ccccc3)c2=O)cc1
pIC50 (Table 4, 30 minutes at 37° C.): 7.52

SMILES: Cc1ccc([C@H](CC(=O)O)NC(=O)Nc2c(O)c(C)cn(Cc3ccc(Cl)cc3Cl)c2=O)cc1
pIC50 [2]: 7.70

SMILES: CCCc1cn(Cc2c(Cl)cccc2OC)c(=O)c(NC(=O)N[C@@H](CC(=O)O)c2ccc(OCC)c(OCC)c2)c1O
pIC50 (Table 6, 30 minutes at 37° C.): 8.52

SMILES: CCn1c2ccccc2c2cc([C@H](CC(=O)O)NC(=O)Nc3c(O)c4c(n(Cc5ccccc5Cl)c3=O)CCC4)ccc21
pIC50 [1]: 7.89

SMILES: CS(=O)(=O)Nc1cccc([C@H](CC(=O)O)NC(=O)Nc2c(O)c3c(n(Cc4ccccc4Cl)c2=O)CCC3)c1 [(3S)-3-{[({1-[(2-chlorophenyl)methyl]-4-hydroxy-2-oxo-2,5,6,7-tetrahydro-1H-cyclopenta[b]pyridin-3-yl}amino)carbonyl]amino}-3-{3-[(methylsulfonyl)amino]phenyl}propanoic acid]
pIC50 [1]: 8.52

SMILES: CCCc1cn(Cc2ccccc2Cl)c(=O)c(NC(=O)N[C@@H](CC(=O)O)c2cccc(OCC)c2)c1O [(3S)-3-[({[1-(2-chlorobenzyl)-4-hydroxy-2-oxo-5-propyl-1,2-dihydropyridin-3-yl]amino}carbonyl)amino]-3-(3-ethoxyphenyl)propanoic acid]
pIC50 [2]: 8.52

SMILES: O=C(O)C[C@H](NC(=O)N[C@@H]1CCCN(Cc2cccs2)C1=O)c1ccc2c(c1)OCO2
pIC50 (Table 2, 30 minutes at 37° C.): 5.70

SMILES: O=C(O)CC(NC(=O)Nc1cccn(Cc2ccccc2Cl)c1=O)c1ccc(Cl)cc1 (stereo not drawn)
pIC50 (Table 4, 30 minutes at 37° C.): 6.40

SMILES: Cc1cn(Cc2ccccc2Cl)c(=O)c(NC(=O)N[C@@H](CC(=O)O)c2ccc3c(c2)CCO3)c1O
pIC50 [1]: 8.22

SMILES: CSc1ccccc1Cn1ccc(O)c(NC(=O)N[C@@H](CC(=O)O)c2ccc(C)cc2)c1=O
pIC50 [2]: 7.70

SMILES: CCn1c2ccccc2c2cc([C@H](CC(=O)O)NC(=O)Nc3c(O)c(C)cn(Cc4ccccc4Cl)c3=O)ccc21
pIC50 [1]: 7.64

SMILES: Cc1cccc(Cl)c1Cn1c2c(c(O)c(NC(=O)N[C@@H](CC(=O)O)c3cccc(OC4CCC4)c3)c1=O)CCC2
pIC50 [1]: 7.70

Results, then the compound that gave them:

pIC50 [1]: 7.77
SMILES: O=C(O)C[C@H](NC(=O)Nc1c(O)c2c(n(Cc3ccccc3Cl)c1=O)CCC2)c1cccc(OC2CCC2)c1

pIC50 [1]: 8.30
SMILES: CCn1ccc2cc([C@H](CC(=O)O)NC(=O)Nc3c(O)c4c(n(Cc5ccccc5Cl)c3=O)CCC4)ccc21 [(3S)-3-{[({1-[(2-chlorophenyl)methyl]-4-hydroxy-2-oxo-2,5,6,7-tetrahydro-1H-cyclopenta[b]pyridin-3-yl}amino)carbonyl]amino}-3-(1-ethyl-1H-indol-5-yl)propanoic acid]

pIC50 (Table 4, 30 minutes at 37° C.): 4.85
SMILES: O=C(O)C[C@H](NC(=O)Nc1cccn(CCCOc2ccccc2)c1=O)c1ccc2c(c1)OCO2

pIC50 [1]: 8.00
SMILES: O=C(O)C[C@H](NC(=O)Nc1c(O)c2c(n(Cc3ccccc3Cl)c1=O)CCC2)c1cccc(OC(F)(F)F)c1

pIC50 [2]: 4.52
SMILES: Cc1ccc(C[C@@H](CC(=O)O)NC(=O)Nc2c(O)ccn(Cc3ccccc3Cl)c2=O)cc1

pIC50 [1]: 8.00
SMILES: CCCOc1cccc(Cl)c1Cn1cc(C)c(O)c(NC(=O)N[C@@H](CC(=O)O)c2ccc(C)cc2)c1=O

pIC50 [2]: 7.70
SMILES: O=C(O)C[C@H](NC(=O)Nc1c(O)ccn(Cc2ccccc2Cl)c1=O)c1cccc(OC(F)(F)F)c1

pIC50 (Table 6, 30 minutes at 37° C.): 7.48
SMILES: COc1ccc(C(C)=O)cc1Cn1ccc(O)c(NC(=O)N[C@@H](CC(=O)O)c2ccc(C)cc2)c1=O

pIC50 (Table 4, 30 minutes at 37° C.): 6.00
SMILES: Cc1ccc([C@H](CC(=O)O)NC(=O)Nc2cccn(Cc3csc(C)n3)c2=O)cc1

pIC50 [2]: 7.82
SMILES: CSc1ccc(Cl)c(Cn2ccc(O)c(NC(=O)N[C@@H](CC(=O)O)c3ccc(C)cc3)c2=O)c1

pIC50 (Table 6, 30 minutes at 37° C.): 6.98
SMILES: O=C(O)CC(NC(=O)Nc1c(O)ccn(Cc2ccccc2Cl)c1=O)c1ccc2ccccc2n1 (stereo not drawn)

pIC50 [1]: 8.22
SMILES: CCOc1cccc(Cl)c1Cn1c2c(c(O)c(NC(=O)N[C@@H](CC(=O)O)c3cccc(OC4CCCC4)c3)c1=O)CCC2

pIC50 [1]: 8.00
SMILES: Cc1cccc(Cl)c1Cn1c2c(c(O)c(NC(=O)N[C@@H](CC(=O)O)c3cccc(OCC4CC4)c3)c1=O)CCC2

pIC50 (Table 4, 30 minutes at 37° C.): 6.52
SMILES: O=C(O)C[C@H](NC(=O)Nc1cccn(Cc2ccccc2Cl)c1=O)c1ccc2c(c1)CCC2

pIC50 (Table 3, 30 minutes at 37° C.): 8.30
SMILES: COc1ccc([C@H](CC(=O)O)NC(=O)Nc2c(O)ccn(Cc3ccccc3Cl)c2=O)cc1 [(3S)-3-{[({1-[(2-chlorophenyl)methyl]-4-hydroxy-2-oxo-1,2-dihydro-3-pyridinyl}amino)carbonyl]amino}-3-[4-(methyloxy)phenyl]propanoic acid]

pIC50 (Table 4, 30 minutes at 37° C.): 7.00
SMILES: Cc1ccc([C@H](CC(=O)O)NC(=O)Nc2cn(Cc3ccccc3Cl)ccc2=O)cc1

pIC50 [1]: 7.74
SMILES: O=C(O)C[C@H](NC(=O)Nc1c(O)c2c(n(Cc3ccccc3Cl)c1=O)CCC2)c1ccc(C(F)(F)F)cc1

pIC50 [1]: 8.30
SMILES: CCOc1cccc(Cl)c1Cn1c(C)c(CC)c(O)c(NC(=O)N[C@@H](CC(=O)O)c2cccc(OC(C)C)c2)c1=O

pIC50 (Table 6, 30 minutes at 37° C.): 8.22
SMILES: COc1cc([C@H](CC(=O)O)NC(=O)Nc2c(O)c(C)cn(Cc3c(Cl)cccc3OC)c2=O)ccc1C

pIC50 [2]: 7.60
SMILES: COc1cc(Cl)ccc1Cn1ccc(O)c(NC(=O)N[C@@H](CC(=O)O)c2ccc(C)cc2)c1=O

pIC50 [1]: 7.05
SMILES: Cc1ccc([C@H](CC(=O)O)NC(=O)Nc2c(O)c(C)cn(Cc3c(Cl)cccc3N3CCCCC3)c2=O)cc1 [(3S)-3-({[(1-{[2-chloro-6-tetrahydro-1(2H)-pyridinylphenyl]methyl}-4-hydroxy-5-methyl-2-oxo-1,2-dihydro-3-pyridinyl)amino]carbonyl}amino)-3-(4-methylphenyl)propanoic acid]

pIC50 (Table 4, 30 minutes at 37° C.): 7.40
SMILES: O=C(O)C[C@H](NC(=O)Nc1cccn(Cc2ccccc2Cl)c1=O)c1ccc2c(c1)CCO2

pIC50 [1]: 7.66
SMILES: CCCc1cn(Cc2c(Cl)cccc2OCC)c(=O)c(NC(=O)N[C@@H](CC(=O)O)c2cccc(OC(C)C)c2)c1O

pIC50 (Table 4, 30 minutes at 37° C.): 7.60
SMILES: CCc1ccc([C@H](CC(=O)O)NC(=O)Nc2c(O)ccn(Cc3ccccc3Cl)c2=O)cc1

pIC50 [1]: 8.52
SMILES: CCOc1cc(OCC)cc([C@H](CC(=O)O)NC(=O)Nc2c(O)c3c(n(Cc4c(Cl)cccc4OCC)c2=O)CCC3)c1 [(3S)-3-[({[1-(2-chloro-6-ethoxybenzyl)-4-hydroxy-2-oxo-2,5,6,7-tetrahydro-1H-cyclopenta[b]pyridin-3-yl]amino}carbonyl)amino]-3-(3,5-diethoxyphenyl)propanoic acid]
